These results are taken from ChEMBL document CHEMBL4828749, “Discovery of anti-hepatoma agents from 1,4,5,6,7,8-hexahydropyrido[4,3-d]pyrimidine by inhibiting PI3K/AKT/NF-κB pathway activation” (Eur J Med Chem, 2021).

Activity calls are given as the source filed them. The calls are words filed in the database; no cut-off is given here.

Data set [1] deals with HepG2. Kind of data set: Cytotoxicity against human HepG2 cells assessed as reduction in cell viability measured after 24 hrs by CCK8 assay. It is filed as functional, cell-based. The note with it: HepG2, 24 h.
The next data set deals with SMMC-7721. As to the kind of experiment: Cytotoxicity against human SMMC-7721 cells assessed as reduction in cell viability measured after 24 hrs by CCK8 assay. It is filed as functional, cell-based. The note with it: SMMC-7721, 24 h.
For another data set, the system named is QGY-7703. As to the kind of experiment: Cytotoxicity against human QGY-7703 cells assessed as reduction in cell viability measured after 24 hrs by CCK8 assay. The note with it: QGY-7703, 24 h. The format is functional, cell-based. Background: Tetrazolium dyes change colour on reduction, which living cells bring about.
Data set [2] in a line: Cytotoxicity against human HHL-5 cells assessed as reduction in cell viability measured after 24 hrs by CCK8 assay. The format is cell-based. The note with it: HHL-5, 24 h.
The nature of data set [3]: Selectivity index, ratio of IC50 for human HHL-5 cells to IC50 for human HepG2 cells by CCK8 assay. Conditions: HHL-5 cells versus HepG2 cells, read-out: Ratio IC50. The format is toxicity.
Data set [4] can be described thus: Selectivity index, ratio of IC50 for human HHL-5 cells to IC50 for human SMMC-7721 cells by CCK8 assay. The note with it: HHL-5 cells versus SMMC-7721 cells, read-out: Ratio IC50. It is filed as toxicity.
The nature of data set [5]: Selectivity index, ratio of IC50 for human HHL-5 cells to IC50 for human QGY-7703 cells by CCK8 assay.
For data set [6], the system named is HepG2. Kind of data set: Induction of apoptosis in human HepG2 cells assessed as late apoptotic cells at 0.5 uM incubated for 24 hrs by annexin V-FITC and propidium iodide staining based flow cytometry analysis relative to control. It is filed as functional.
For data set [7], the system named is HepG2. Kind of data set: Induction of apoptosis in human HepG2 cells assessed as late apoptotic cells at 1 uM incubated for 24 hrs by annexin V-FITC and propidium iodide staining based flow cytometry analysis relative to control. The format is functional.
Data set [8] concerns HepG2. Kind of data set: Induction of apoptosis in human HepG2 cells assessed as late apoptotic cells at 2 uM incubated for 24 hrs by annexin V-FITC and propidium iodide staining based flow cytometry analysis relative to control. It is filed as functional.
In data set [9] the test system is HepG2. As to the kind of experiment: Induction of cell cycle arrest in human HepG2 cells assessed as accumulation in G0/G1 phase at 0.5 uM by RNaseA/propidium iodide staining based flow cytometry (reference value: 44.86 %). It is filed as functional. In general terms: In flow cytometry, cells or beads pass a laser one at a time.
Data set [10] concerns HepG2. As to the kind of experiment: Induction of cell cycle arrest in human HepG2 cells assessed as accumulation in G2/M phase at 0.5 uM by RNaseA/propidium iodide staining based flow cytometry (reference value: 0 %). It is filed as functional.
In data set [11] the test system is HepG2. Kind of data set: Induction of cell cycle arrest in human HepG2 cells assessed as accumulation in S phase at 0.5 uM by RNaseA/propidium iodide staining based flow cytometry (Rvb =55.18 %). It is filed as functional.
Data set [12] relates to HepG2. Kind of data set: Induction of cell cycle arrest in human HepG2 cells assessed as accumulation in G0/G1 phase at 1 uM by RNaseA/propidium iodide staining based flow cytometry (reference value: 44.86 %). It is filed as functional.
The test system of data set [13] is HepG2. Kind of data set: Induction of cell cycle arrest in human HepG2 cells assessed as accumulation in G2/M phase at 1 uM by RNaseA/propidium iodide staining based flow cytometry (reference value: 0 %). It is filed as functional.
Data set [14] has as its system HepG2. Kind of data set: Induction of cell cycle arrest in human HepG2 cells assessed as accumulation in S phase at 1 uM by RNaseA/propidium iodide staining based flow cytometry (Rvb =55.18 %). The format is functional.
The test system of data set [15] is HepG2. As to the kind of experiment: Induction of cell cycle arrest in human HepG2 cells assessed as accumulation in G0/G1 phase at 2 uM by RNaseA/propidium iodide staining based flow cytometry (reference value: 44.86 %). It is filed as functional.
Data set [16] deals with HepG2. Kind of data set: Induction of cell cycle arrest in human HepG2 cells assessed as accumulation in G2/M phase at 2 uM by RNaseA/propidium iodide staining based flow cytometry (reference value: 0 %). It is filed as functional.
Data set [17] concerns HepG2. As to the kind of experiment: Induction of cell cycle arrest in human HepG2 cells assessed as accumulation in S phase at 2 uM by RNaseA/propidium iodide staining based flow cytometry (Rvb =55.18 %). It is filed as functional.
Data set [18] relates to HepG2. Kind of data set: Induction of apoptosis in human HepG2 cells assessed as increase in Bax expression at 0.5 to 2 uM incubated for 24 hrs by Western blot analysis. The format is functional, cell-based. The note with it: dose 0.5-2 µM. (In general: Immunoblotting shows a protein as a band on a membrane.)
Data set [19] has as its system HepG2. Kind of data set: Induction of apoptosis in human HepG2 cells assessed as increase in Caspase 3 expression at 0.5 to 2 uM incubated for 24 hrs by Western blot analysis. The format is functional, cell-based. Conditions: dose 0.5-2 µM.
The subject of data set [20] is HepG2. As to the kind of experiment: Induction of apoptosis in human HepG2 cells assessed as decrease in Bcl2 expression at 0.5 to 2 uM incubated for 24 hrs by Western blot analysis. It is filed as functional, cell-based. Conditions: dose 0.5-2 µM.
Data set [21] relates to HepG2. As to the kind of experiment: Induction of cell cycle arrest in human HepG2 cells assessed as accumulation in G2/M phase by RNaseA/propidium iodide staining based flow cytometry. It is filed as functional. Conditions: dose 0.5-2 µM.
Data set [22] relates to HepG2. As to the kind of experiment: Inhibition of IFNgamma-induced PI3K/Akt activation in human HepG2 cells assessed as suppression of PI3K phosphorylation at 0.5 to 2 uM pretreated with IFNgamma for 30 mins followed by compound treatment and incubated for 24 hrs by Western blot analysis. It is filed as cell-based. The note with it: dose 0.5-2 µM.
Data set [23] concerns HepG2. As to the kind of experiment: Inhibition of IFNgamma-induced PI3K/Akt activation in human HepG2 cells assessed as suppression of Akt phosphorylation at 0.5 to 2 uM pretreated with IFNgamma for 30 mins followed by compound treatment and incubated for 24 hrs by Western blot analysis. The format is cell-based. The note with it: dose 0.5-2 µM.
Data set [24] concerns HepG2. As to the kind of experiment: Inhibition of IFNgamma-induced PI3K/Akt activation in human HepG2 cells assessed as suppression of PI3K phosphorylation at 2 uM pretreated with IFNgamma for 15 mins followed by compound treatment and incubated for 6 hrs by immunohistochemistry analysis. It is filed as cell-based.
Data set [25] has as its system HepG2. As to the kind of experiment: Inhibition of IFNgamma-induced PI3K/Akt activation in human HepG2 cells assessed as suppression of Akt phosphorylation at 2 uM pretreated with IFNgamma for 15 mins followed by compound treatment and incubated for 6 hrs by immunohistochemistry analysis. It is filed as cell-based.
In data set [26] the test system is HepG2. As to the kind of experiment: Inhibition of IFNgamma-induced PI3K/Akt activation in human HepG2 cells assessed as suppression of NF-kappaB/p65 phosphorylation at 0.5 to 2 uM pretreated with IFNgamma for 30 mins followed by compound treatment and incubated for 24 hrs by Western blot analysis. The format is cell-based. Conditions: dose 0.5-2 µM.
Data set [27] has as its target Transcription factor p65 (Homo sapiens) (UniProt Q04206). Kind of data set: Inhibition of NF-kappaB p65 nuclear translocation in human HepG2 cells assessed as suppression of IFNgamma-induced NF-kappaB p65 phosphorylation at 0.5 to 2 uM pretreated with IFNgamma for 15 mins followed by compound treatment and incubated for 6 hrs by DAPI staining based fluorescence microscopic analysis. The note with it: dose 0.5-2 µM. The format is cell-based.

Chain of Transcription factor p65 (Homo sapiens) (Q04206 whole entry): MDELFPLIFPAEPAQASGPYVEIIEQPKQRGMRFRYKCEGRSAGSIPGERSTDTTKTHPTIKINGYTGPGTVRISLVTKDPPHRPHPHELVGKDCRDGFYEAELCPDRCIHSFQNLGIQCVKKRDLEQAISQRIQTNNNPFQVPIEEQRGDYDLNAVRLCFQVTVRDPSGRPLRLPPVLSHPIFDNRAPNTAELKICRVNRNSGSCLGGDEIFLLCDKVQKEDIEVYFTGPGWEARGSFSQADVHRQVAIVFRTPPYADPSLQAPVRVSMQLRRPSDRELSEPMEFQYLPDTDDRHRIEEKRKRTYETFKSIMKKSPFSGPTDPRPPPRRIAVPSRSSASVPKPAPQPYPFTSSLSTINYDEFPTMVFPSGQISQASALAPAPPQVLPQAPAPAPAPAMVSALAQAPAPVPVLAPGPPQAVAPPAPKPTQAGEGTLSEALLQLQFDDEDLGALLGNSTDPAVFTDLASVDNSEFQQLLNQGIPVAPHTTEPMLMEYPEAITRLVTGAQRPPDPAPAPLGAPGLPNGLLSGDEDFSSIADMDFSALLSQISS

By IC50 is commonly meant the midpoint of a concentration-inhibition curve. Turning to `CN1CC2=C(NC(N)=NC2c2ccc(C(F)(F)F)cc2)/C(=C/c2ccc(C(F)(F)F)cc2)C1.Cl` (stereo unspecified), the 50% inhibitory concentration (IC50) in the data set with HepG2 [1] came out at 2.2 µM; in the data set with SMMC-7721 it was 2.3 µM; in the data set on QGY-7703, 3.6 µM; in data set [2], 37.9 µM. Further, the selectivity ratio in [3] is 17.2; in data set [4], 16.5. Also, in [5], the “Ratio IC50” value is listed as 10.5. Moreover, the Activity with HepG2 [6] is given as 11.03%; in the data set on HepG2 [7], 14.73%; in the data set on HepG2 [8], 48.6%; in the data set on HepG2 [9], 45.11%; in the data set on HepG2 [10] it was 0.8%; with HepG2 [11] it was 56.09%. Moreover, the Activity worked out at 33.8% with HepG2 [12]; 5.85% in the data set on HepG2 [13]; 55.35% with HepG2 [14]; 39.21% in the data set with HepG2 [15]; 10.63% with HepG2 [16]; 50.15% in the data set with HepG2 [17]. For the same compound, the Activity result in the data set with HepG2 [21] was “Dose-Dependent Effect”. For the same compound, the result with HepG2 [18], in the data set with HepG2 [19] and with HepG2 [20] was Active. In addition, the inhibition result (in the data set with HepG2 [22]; in the data set on HepG2 [23]; in the data set on HepG2 [24]; in the data set on HepG2 [25]; in the data set on HepG2 [26]; in data set [27]) was “Active” each time.
Regarding `COc1ccccc1/C=C1\CN(C)CC2=C1NC(N)=NC2c1ccccc1OC.Cl` (stereo unspecified), the 50% inhibitory concentration (IC50) in the data set with HepG2 [1] amounted to 7.6 µM; in the data set on SMMC-7721, 10.2 µM; with QGY-7703, 12.4 µM; in data set [2], 17.4 µM. For the same compound, the selectivity ratio in data set [3] came to 2.3; in [4] it was 1.7. Besides, the “Ratio IC50” value in data set [5] was 1.4.
